Measurements as given in patent US20260207560A1, “PLURALITY OF GRANULES” (priority 2022, published 2026).
Values joined by “and” are separate entries in the source; they are usually repeats but may differ in a detail not shown here. Identical values can stand only once.

Assay: Stability of active ingredient in volatile solvents, 20-28 hours at ambient (UPLC assay and impurities)
Conditions: for Assay (as % of nominal): vial replicates
Description: Note the incubation for the stability studies were all performed in a similar way: • All were put into 4 mL amber glass vials. • The Initial samples were not analysed as soon as sampled but instead were frozen at −20° C. until the point of analysing the incubated samples (e.g after 28 days at 25, 40 or 50° C.) to avoid degradation of the active ingredient.
Chemical stability was determined by assay (results in Table 8) and quantification of potential active ingredient related substances (shown in
Table 9). […] The objective was to establish whether any active ingredient-related substances might be increasing as a result of the ambient hold.

[1] = 0.1 M HCl, 24 hour, listed as active ingredient
[2] = 0.1 M HCl, Initial, listed as active ingredient
[3] = 5% SLS aq., 24 hour, listed as active ingredient
[4] = 5% SLS aq., Initial, listed as active ingredient

CCS(=O)(=O)Nc1ccc2c(c1)nc(C(C)(C)C)n2CC1CCC(F)(F)CC1 [Compound I, N-(2-(tert-butyl)-1-((4,4-difluorocyclohexyl)methyl)-1H-benzimidazol-5-yl)ethanesulfonamide]
Impurity peak area, RRT 0.38 (0.1 M HCl, 24 hour): 0.07 % of Total
Impurity peak area, RRT 0.61 (0.1 M HCl, 24 hour): <0.05 % of Total
Impurity peak area, RRT 0.83 (0.1 M HCl, 24 hour): 0.11 % of Total
Impurity peak area, RRT 0.85 (0.1 M HCl, 24 hour): 0.07 % of Total
Impurity peak area, RRT 0.92 (0.1 M HCl, 24 hour): 0.09 % of Total
Impurity peak area, RRT 0.62 [1]: <0.05 % of Total and 0.05 % of Total
Impurity peak area, RRT 0.84* [1]: 0.27 % of Total and 0.34 % of Total
Impurity peak area, RRT 0.86^$ (PDA spectra unrelated to the active ingredient) [1]: <0.05 % of Total and 0.05 % of Total
Impurity peak area, RRT 0.98* (first row) [1]: 0.24 % of Total and 0.22 % of Total
Impurity peak area, RRT 0.98* (second row) [1]: 0.12 % of Total and 0.13 % of Total
Impurity peak area, RRT 1.04* [1]: 0.05 % of Total and <0.05 % of Total
Impurity peak area, RRT 1.23* [1]: 0.16 % of Total and 0.15 % of Total
Impurity peak area, RRT 1.24* [1]: <0.05 % of Total and 0.05 % of Total
Impurity peak area, RRT 1.35* [1]: 0.07 % of Total and 0.06 % of Total
Impurity peak area, RRT 1.36* [1]: <0.05 % of Total and 0.05 % of Total
Impurity peak area, Total [1]: 1.00 % of Total and 1.44 % of Total
Impurity peak area, Total excluding artifact [1]: 1.00 % of Total and 1.16 % of Total
Assay (as % of nominal), Mean (0.1M HCl, 24 hours ambient): 106.7 % of nominal
Assay (as % of nominal) (0.1M HCl, 24 hours ambient, listed as active ingredient): 107.7 % of nominal and 105.4 % of nominal
Assay (as % of nominal), Mean (0.1 M HCl, Initial): 114.4 % of nominal
Impurity peak area, RRT 0.41 (0.1 M HCl, Initial): <0.05 % of Total
Impurity peak area, RRT 0.98* (first row) (0.1 M HCl, Initial): 0.22 % of Total
Impurity peak area, RRT 0.98* (second row) (0.1 M HCl, Initial): 0.12 % of Total
Impurity peak area, RRT 1.04* (0.1 M HCl, Initial): <0.05 % of Total
Impurity peak area, RRT 1.24* (0.1 M HCl, Initial): <0.05 % of Total
Impurity peak area, RRT 0.38 [2]: 0.10 % of Total and 0.08 % of Total
Impurity peak area, RRT 0.61 [2]: 0.13 % of Total and 0.08 % of Total
Impurity peak area, RRT 0.62 [2]: 0.15 % of Total and 0.09 % of Total
Impurity peak area, RRT 0.84* [2]: 0.31 % of Total and 0.26 % of Total
Impurity peak area, RRT 0.85 [2]: <0.05 % of Total and 0.08 % of Total
Impurity peak area, RRT 0.92 [2]: 0.18 % of Total and 0.14 % of Total
Impurity peak area, RRT 1.23* [2]: 0.22 % of Total and 0.23 % of Total
Impurity peak area, RRT 1.35* [2]: 0.05 % of Total and 0.06 % of Total
Impurity peak area, RRT 1.36* [2]: 0.05 % of Total and 0.06 % of Total
Impurity peak area, Total [2]: 2.00 % of Total and 1.47 % of Total
Impurity peak area, Total excluding artifact [2]: 1.15 % of Total and 1.17 % of Total
Assay (as % of nominal) (0.1M HCl, Initial, listed as active ingredient): 100.6 % of nominal and 127.9 % of nominal
Impurity peak area, RRT 0.41 (5% SLS aq., 24 hour): <0.05 % of Total
Impurity peak area, RRT 0.62 (5% SLS aq., 24 hour): 0.08 % of Total
Impurity peak area, RRT 0.85 (5% SLS aq., 24 hour): NBD
Impurity peak area, RRT 0.92 (5% SLS aq., 24 hour): 0.05 % of Total
Impurity peak area, RRT 0.98* (first row) (5% SLS aq., 24 hour): 0.24 % of Total
Impurity peak area, RRT 1.04* (5% SLS aq., 24 hour): 0.06 % of Total
Impurity peak area, RRT 1.24* (5% SLS aq., 24 hour): <0.05 % of Total
Impurity peak area, RRT 1.36* (5% SLS aq., 24 hour): <0.05 % of Total
Impurity peak area, RRT 0.38 [3]: 0.10 % of Total and 0.07 % of Total
Impurity peak area, RRT 0.61 [3]: 0.07 % of Total and 0.06 % of Total
Impurity peak area, RRT 0.83 [3]: 0.30 % of Total and 0.16 % of Total
Impurity peak area, RRT 0.84* [3]: 0.32 % of Total and 0.30 % of Total
Impurity peak area, RRT 0.86^$ (PDA spectra unrelated to the active ingredient) [3]: 0.05 % of Total and 0.07 % of Total
Impurity peak area, RRT 0.98* (second row) [3]: 0.13 % of Total and 0.12 % of Total
Impurity peak area, RRT 1.23* [3]: 0.06 % of Total and 0.07 % of Total
Impurity peak area, RRT 1.35* [3]: 0.07 % of Total and 0.06 % of Total
Impurity peak area, Total [3]: 1.53 % of Total and 1.34 % of Total
Impurity peak area, Total excluding artifact [3]: 0.93 % of Total and 0.90 % of Total
Assay (as % of nominal), Mean (5% SLS aq., 24 hours ambient): 100.8 % of nominal
Assay (as % of nominal) (5% SLS aq., 24 hours ambient, listed as active ingredient): 99.4 % of nominal and 102.3 % of nominal
Assay (as % of nominal), Mean (5% SLS aq., Initial): 103.3 % of nominal
Impurity peak area, RRT 0.84* (5% SLS aq., Initial): 0.32 % of Total
Impurity peak area, RRT 0.86^$ (PDA spectra unrelated to the active ingredient) (5% SLS aq., Initial): <0.05 % of Total
Impurity peak area, RRT 0.98* (first row) (5% SLS aq., Initial): 0.24 % of Total
Impurity peak area, RRT 0.98* (second row) (5% SLS aq., Initial): 0.12 % of Total
Impurity peak area, RRT 1.24* (5% SLS aq., Initial): <0.05 % of Total
Impurity peak area, RRT 1.36* (5% SLS aq., Initial): 0.05 % of Total
Impurity peak area, RRT 0.92 [4]: 0.05 % of Total and <0.05 % of Total
Impurity peak area, RRT 1.04* [4]: 0.05 % of Total and <0.05 % of Total
Impurity peak area, RRT 1.23* [4]: 0.06 % of Total and 0.07 % of Total
Impurity peak area, RRT 1.35* [4]: 0.07 % of Total and 0.08 % of Total
